Reference: ChEMBL document CHEMBL1201862, “PubChem BioAssay data set” (2004)
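Five compound concentrations were applied to cells in 96-well plates for 48 hours; endpoints were derived by simple linear interpolation of the resulting dose-response curve. GI50 = concentration required for 50% inhibition of growth.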 Active and inactive are the calls of the source. No stated cut-off is given here; in the data, active = GI50 up to about 1.1 µM and inactive = higher.

Columns and labels:
Test in all cases: growth of human tumour cells (NCI), 48 h
[1] = test system: SK-MEL-2
[2] = test system: NCI-H522
[3] = test system: UO-31
[4] = test system: RPMI-8226
[5] = test system: TK-10
[6] = test system: OVCAR-8
[7] = test system: SN12C
[8] = test system: KM12
[9] = test system: COLO 205
[10] = test system: CAKI-1
[11] = test system: Malme-3M
[12] = test system: SF-539
[13] = test system: SF-268
[14] = test system: NCI-H226
[15] = test system: 786-0
[16] = test system: A549
[17] = test system: MDA-MB-231
[18] = test system: SK-MEL-5
[19] = test system: MOLT-4
[20] = test system: SNB-19
[21] = test system: MDA-N
[22] = test system: LOX IMVI
[23] = test system: MDA-MB-435
[24] = test system: SR
[25] = test system: SK-OV-3
[26] = test system: EKVX
[27] = test system: HCT-116
[28] = test system: CCRF-CEM
[29] = test system: IGROV-1
[30] = test system: OVCAR-5
[31] = test system: HOP-92
[32] = test system: BT-549
[33] = test system: NCI/ADR-RES
[34] = test system: Hs-578T
[35] = test system: ACHN
[36] = test system: SK-MEL-28
[37] = test system: SW-620
[38] = test system: UACC-62
[39] = test system: MCF7
[40] = test system: NCI-H23
[41] = test system: RXF 393
[42] = test system: UACC-257
[43] = test system: U-251
[44] = test system: DU-145
[45] = test system: OVCAR-3
[46] = test system: HOP-62
[47] = test system: K562
[48] = test system: OVCAR-4
[49] = test system: A498
[50] = test system: HT-29
[51] = test system: M14
[52] = test system: SF-295
[53] = test system: NCI-H460
[54] = test system: T47D
[55] = test system: HCT-15
[56] = test system: PC-3
[57] = test system: HL-60

Measured: GI50

O=C1CC2C(=O)C1C(C(=O)O)C2C(=O)O (configuration not stated)
> 100 µM: [55]
inactive: [1] > 100 µM | [2] > 100 µM | [3] > 100 µM | [4] > 100 µM | [5] > 100 µM | [6] > 100 µM | [7] > 100 µM | [8] > 100 µM | [9] > 100 µM | [10] > 100 µM | [11] > 100 µM | [12] > 100 µM | [13] > 100 µM | [14] > 100 µM | [15] > 100 µM | [16] > 100 µM | [17] > 100 µM | [18] > 100 µM | [19] > 100 µM | [20] > 100 µM | [21] > 100 µM | [22] > 100 µM | [23] > 100 µM | [24] > 100 µM | [25] > 100 µM | [26] > 100 µM | [27] > 100 µM | [28] > 100 µM | [29] > 100 µM | [30] > 100 µM | [31] > 100 µM | [32] > 100 µM | [33] > 100 µM | [34] > 100 µM | [35] > 100 µM | [36] > 100 µM | [37] > 100 µM | [38] > 100 µM | [39] > 100 µM | [40] > 100 µM | [41] > 100 µM | [42] > 100 µM | [43] > 100 µM | [44] > 100 µM | [45] > 100 µM | [46] > 100 µM | [47] > 100 µM | [48] > 100 µM | [49] > 100 µM | [50] > 100 µM | [51] > 100 µM | [52] > 100 µM | [53] > 100 µM | [54] > 100 µM | [56] > 100 µM | [57] > 100 µM
